Measurements from PubChem BioAssay AID288 (DTP/NCI, 2004).
Several values for one entry are separate records, joined by “and”; a condition that tells them apart may be missing. Identical values can stand only once. Results filed as inconclusive are left out.

Test system: BDF1 mice, M5076 sarcoma s.c., survival/tumor T/C
Experiment: NCI In Vivo Anticancer Drug Screen. Data for tumor model Sarcoma M5076 (subcutaneous) in B6D2F1 (BDF1) mice
Description: The antitumor activity of compounds was measured in mice bearing transplantable tumors. Survival or tumor size were measured and the results are expressed as the measurement made in the treated group (T) divided by the measurement made in the vehicle treated control group (C). The tumor model used in this assay is Sarcoma M5076 (subcutaneous) in B6D2F1 (BDF1) mice

[1] = endpoint: median survival time, dose: 50.0 mg/kg/injection, schedule: Q01DX009 (ip), vehicle: saline with Tween-80, higher = longer survival
[2] = endpoint: median survival time, dose: 100.0 mg/kg/injection, schedule: Q01DX009 (ip), vehicle: saline with Tween-80, higher = longer survival
[3] = endpoint: median survival time, dose: 200.0 mg/kg/injection, schedule: Q01DX009 (ip), vehicle: saline with Tween-80, higher = longer survival
[4] = endpoint: median tumor weight (est.), dose: 50.0 mg/kg/injection, schedule: Q01DX009 (ip), vehicle: saline with Tween-80, higher = larger tumour
[5] = endpoint: median tumor weight (est.), dose: 100.0 mg/kg/injection, schedule: Q01DX009 (ip), vehicle: saline with Tween-80, higher = larger tumour

Compound: CN(C)CCCNc1c2ccccc2nc2cccc([N+](=O)[O-])c12
- T/C (endpoint: mean tumor weight, dose: 2.0 micrograms/kg/injection, schedule: Q02DX011 (ip), vehicle: saline, higher = larger tumour): 106 % of control
- T/C (endpoint: mean tumor weight, dose: 4.0 micrograms/kg/injection, schedule: Q02DX011 (ip), vehicle: saline, higher = larger tumour): 70 % of control
- T/C (endpoint: mean tumor weight, dose: 8.0 micrograms/kg/injection, schedule: Q02DX011 (ip), vehicle: saline, higher = larger tumour): 97 % of control
- T/C (endpoint: mean tumor weight, dose: 16.0 micrograms/kg/injection, schedule: Q02DX011 (ip), vehicle: saline, higher = larger tumour): 92 % of control
- T/C (endpoint: mean tumor weight, dose: 32.0 micrograms/kg/injection, schedule: Q02DX011 (ip), vehicle: saline, higher = larger tumour): 88 % of control
- T/C (endpoint: mean tumor weight, dose: 64.0 micrograms/kg/injection, schedule: Q02DX011 (ip), vehicle: saline, higher = larger tumour): 65 % of control
- T/C (endpoint: median tumor weight (est.), dose: 2.0 micrograms/kg/injection, schedule: Q02DX011 (ip), vehicle: saline, higher = larger tumour): 112 % of control
- T/C (endpoint: median tumor weight (est.), dose: 4.0 micrograms/kg/injection, schedule: Q02DX011 (ip), vehicle: saline, higher = larger tumour): 90 % of control
- T/C (endpoint: median tumor weight (est.), dose: 8.0 micrograms/kg/injection, schedule: Q02DX011 (ip), vehicle: saline, higher = larger tumour): 95 % of control
- T/C (endpoint: median tumor weight (est.), dose: 32.0 micrograms/kg/injection, schedule: Q02DX011 (ip), vehicle: saline, higher = larger tumour): 100 % of control
- T/C (endpoint: median tumor weight (est.), dose: 64.0 micrograms/kg/injection, schedule: Q02DX011 (ip), vehicle: saline, higher = larger tumour): 62 % of control

Compound: COC(=N)CCCCC(=N)OC
- T/C (endpoint: median survival time, dose: 50.0 mg/kg/injection, schedule: Q01DX009 (ip), vehicle: saline, higher = longer survival): 98 % of control
- T/C (endpoint: median survival time, dose: 100.0 mg/kg/injection, schedule: Q01DX009 (ip), vehicle: saline, higher = longer survival): 98 % of control
- T/C (endpoint: median survival time, dose: 200.0 mg/kg/injection, schedule: Q01DX009 (ip), vehicle: saline, higher = longer survival): 98 % of control
- T/C (endpoint: median tumor weight (est.), dose: 50.0 mg/kg/injection, schedule: Q01DX009 (ip), vehicle: saline, higher = larger tumour): 87 % of control
- T/C (endpoint: median tumor weight (est.), dose: 100.0 mg/kg/injection, schedule: Q01DX009 (ip), vehicle: saline, higher = larger tumour): 86 % of control

Compound: Nc1nc(SCC(=O)O)[nH]c(=O)c1N
- T/C [1]: 93 % of control
- T/C [2]: 105 % of control
- T/C [3]: 110 % of control

Compound: CCCCCCCCCCCCCCCc1ccc(O)cc1O
- T/C (endpoint: median survival time, dose: 25.0 mg/kg/injection, schedule: Q02DX030 (ip), vehicle: saline with Tween-80, higher = longer survival): 119 % of control
- T/C (endpoint: median survival time, dose: 50.0 mg/kg/injection, schedule: Q02DX030 (ip), vehicle: saline with Tween-80, higher = longer survival): 111 % of control

Compound: COc1cc(/C=C2\SC(=S)N(c3ccc(Cl)c(Cl)c3)C2=O)ccc1O
- T/C [1]: 90 % of control
- T/C [2]: 94 % of control
- T/C [4]: 105 % of control
- T/C [5]: 117 % of control

Compound: O=c1[nH]c(=O)n(C2CC(O)C(CO)O2)cc1C(F)(F)F (centres undefined)
- T/C (endpoint: mean tumor weight, dose: 37.5 mg/kg/injection, schedule: Q02DX011 (ip), vehicle: saline, higher = larger tumour): 87 % of control
- T/C (endpoint: mean tumor weight, dose: 75.0 mg/kg/injection, schedule: Q02DX011 (ip), vehicle: saline, higher = larger tumour): 24 % of control
- T/C (endpoint: mean tumor weight, dose: 150.0 mg/kg/injection, schedule: Q02DX011 (ip), vehicle: saline, higher = larger tumour): 6 % of control
- T/C (endpoint: median tumor weight (est.), dose: 37.5 mg/kg/injection, schedule: Q02DX011 (ip), vehicle: saline, higher = larger tumour): 70 % of control and 90 % of control
- T/C (endpoint: median tumor weight (est.), dose: 150.0 mg/kg/injection, schedule: Q02DX011 (ip), vehicle: saline, higher = larger tumour): 4 % of control

Compound: O=C1CC(=O)N(C2CCCCC2)C(=O)N1c1ccccc1S(=O)(=O)Oc1ccccc1
- T/C [1]: 94 % of control
- T/C [2]: 90 % of control
- T/C [3]: 100 % of control
- T/C [4]: 111 % of control
- T/C [5]: 56 % of control
- T/C (endpoint: median tumor weight (est.), dose: 200.0 mg/kg/injection, schedule: Q01DX009 (ip), vehicle: saline with Tween-80, higher = larger tumour): 96 % of control

Compound: O=C(O)c1ccc(C(=O)O)c(C(=O)O)c1.[NH-]C1CCCCC1[NH-].[Pt+2]
- T/C (endpoint: median survival time, dose: 0.8 mg/kg/injection, schedule: Q01DX009 (ip), vehicle: sodium bicarbonate, higher = longer survival): 101 % of control
- T/C (endpoint: median survival time, dose: 1.5 mg/kg/injection, schedule: Q01DX009 (ip), vehicle: sodium bicarbonate, higher = longer survival): 104 % of control
- T/C (endpoint: median survival time, dose: 3.0 mg/kg/injection, schedule: Q01DX009 (ip), vehicle: sodium bicarbonate, higher = longer survival): 108 % of control
- T/C (endpoint: median survival time, dose: 6.0 mg/kg/injection, schedule: Q01DX009 (ip), vehicle: sodium bicarbonate, higher = longer survival): 112 % of control
- T/C (endpoint: median survival time, dose: 8.64 mg/kg/injection, schedule: Q04DX005 (ip), vehicle: sodium bicarbonate, higher = longer survival): 176 % of control
- T/C (endpoint: median survival time, dose: 14.4 mg/kg/injection, schedule: Q04DX005 (ip), vehicle: sodium bicarbonate, higher = longer survival): 216 % of control
- T/C (endpoint: median tumor weight (est.), dose: 3.11 mg/kg/injection, schedule: Q04DX005 (ip), vehicle: sodium bicarbonate, higher = larger tumour): 14 % of control
- T/C (endpoint: median tumor weight (est.), dose: 5.18 mg/kg/injection, schedule: Q04DX005 (ip), vehicle: sodium bicarbonate, higher = larger tumour): 18 % of control

Compound: Cc1ccc(SC(F)(F)C(F)C(F)(F)F)cc1 (centres undefined)
- T/C [1]: 98 % of control
- T/C [2]: 112 % of control
- T/C [3]: 100 % of control

Compound: O=[N+]([O-])c1nccn1CC(O)CO (centres undefined)
- T/C (endpoint: median survival time, dose: 1776.0 mg/kg/injection, schedule: Q01DX001 (ip), vehicle: saline, higher = longer survival): 101 % of control and 102 % of control
- T/C (endpoint: median survival time, dose: 2500.0 mg/kg/injection, schedule: Q01DX001 (ip), vehicle: saline, higher = longer survival): 102 % of control (2×) and 92 % of control

Compound: Nc1ncn(C2OC(CO)C(O)C2O)c(=O)n1 (centres undefined)
- T/C (endpoint: median survival time, dose: 0.6 mg/kg/injection, schedule: Q04DX009 (ip), vehicle: saline, higher = longer survival): 106 % of control
- T/C (endpoint: median survival time, dose: 1.2 mg/kg/injection, schedule: Q04DX009 (ip), vehicle: saline, higher = longer survival): 112 % of control
- T/C (endpoint: median survival time, dose: 2.4 mg/kg/injection, schedule: Q04DX009 (ip), vehicle: saline, higher = longer survival): 113 % of control
- T/C (endpoint: median survival time, dose: 4.8 mg/kg/injection, schedule: Q04DX009 (ip), vehicle: saline, higher = longer survival): 111 % of control

Compound: [N-]=[N+]=CC(=O)CCC(N)C(=O)O (centres undefined)
- T/C (endpoint: median survival time, dose: 1.0 mg/kg/injection, schedule: Q04DX005 (ip), vehicle: saline, higher = longer survival): 150 % of control and 159 % of control
- T/C (endpoint: median survival time, dose: 2.0 mg/kg/injection, schedule: Q04DX005 (ip), vehicle: saline, higher = longer survival): 166 % of control and 167 % of control
- T/C (endpoint: median survival time, dose: 4.0 mg/kg/injection, schedule: Q04DX005 (ip), vehicle: saline, higher = longer survival): 181 % of control and 183 % of control
- T/C (endpoint: median survival time, dose: 8.0 mg/kg/injection, schedule: Q04DX005 (ip), vehicle: saline, higher = longer survival): 186 % of control and 188 % of control
- T/C (endpoint: median survival time, dose: 16.0 mg/kg/injection, schedule: Q04DX005 (ip), vehicle: saline, higher = longer survival): 98 % of control

Compound: CN(C)/N=N/c1nc[nH]c1C(N)=O
- T/C (endpoint: median survival time, dose: 13.5 mg/kg/injection, schedule: Q04DX006 (ip), vehicle: saline with Tween-80, higher = longer survival): 96 % of control
- T/C (endpoint: median survival time, dose: 27.0 mg/kg/injection, schedule: Q02DX030 (ip), vehicle: saline with Tween-80, higher = longer survival): 177 % of control
- T/C (endpoint: median survival time, dose: 27.0 mg/kg/injection, schedule: Q04DX006 (ip), vehicle: saline with Tween-80, higher = longer survival): 122 % of control
- T/C (endpoint: median survival time, dose: 54.0 mg/kg/injection, schedule: Q02DX030 (ip), vehicle: saline with Tween-80, higher = longer survival): 191 % of control

Compound: C1CN1c1nc(N2CC2)nc(N2CC2)n1
- T/C (endpoint: mean tumor weight, dose: 0.1 mg/kg/injection, schedule: Q02DX011 (ip), vehicle: Klucel (hydroxypropylcellulose) (HPC), higher = larger tumour): 76 % of control
- T/C (endpoint: mean tumor weight, dose: 0.2 mg/kg/injection, schedule: Q02DX011 (ip), vehicle: Klucel (hydroxypropylcellulose) (HPC), higher = larger tumour): 25 % of control
- T/C (endpoint: mean tumor weight, dose: 0.4 mg/kg/injection, schedule: Q02DX011 (ip), vehicle: Klucel (hydroxypropylcellulose) (HPC), higher = larger tumour): 8 % of control
- T/C (endpoint: median survival time, dose: 0.06 mg/kg/injection, schedule: Q02DX011 (ip), vehicle: saline, higher = longer survival): 100 % of control
- T/C (endpoint: median survival time, dose: 0.13 mg/kg/injection, schedule: Q02DX011 (ip), vehicle: saline, higher = longer survival): 113 % of control
- T/C (endpoint: median survival time, dose: 0.25 mg/kg/injection, schedule: Q02DX011 (ip), vehicle: saline, higher = longer survival): 100 % of control
- T/C (endpoint: median survival time, dose: 1.0 mg/kg/injection, schedule: Q02DX011 (ip), vehicle: saline, higher = longer survival): 191 % of control
